Measured values from patent publication EP0432983A2 (priority 1989, dated 1991).
Values after ≈ are worked out from the molar mass of the structure shown.

Experiments:
[1] = system: P-388 (mouse DBA/2 lymphoid neoplasm); test: General anti-tumour assay, P-388; type: cell-based
Description: (§1) With compounds AH-3, AH-4 and AH-5, four general anti-tumour assays and two cytotoxicity assays were performed. Current screening protocols were employed using test substance diluted as above and at varying concentrations. Tests were performed against the tumour cells P-388 (mouse DBA/2 lymphoid neoplasm), A-549 (human lung carcinoma), HT-29 (human colon carcinoma) and MCF-7 (human breast carcinoma) and for the cytotoxicity assays against CV-1 (monkey kidney fibroblast) and BHK (Hamster kidney fibroblast).
(§2) Scoring is performed as follows: (-) no activity - the number of cells is equal to the control of growth, 0-40% cell inhibition (+) low activity - numbers of cells are reduced by approx 50-60% (++) good activity - numbers of cells are reduced by approx 70-90% (+++) very good activity - there is 100% cell inhibition [(+) is the approximate IC₅₀]

[2] = system: A-549 (human lung carcinoma); test: General anti-tumour assay, A-549; type: cell-based
Description: as §1, §2

[3] = system: HT-29 (human colon carcinoma); test: General anti-tumour assay, HT-29; type: cell-based
Description: as §1, §2

[4] = system: MCF-7 (human breast carcinoma); test: General anti-tumour assay, MCF-7; type: cell-based
Description: as §1, §2

[5] = system: CV-1 (monkey kidney fibroblast); test: Cytotoxicity assay, CV-1; type: cell-based
Description: as §1, §2

[6] = system: BHK (Hamster kidney fibroblast); test: Cytotoxicity assay, BHK; type: cell-based
Description: as §1, §2

[7] = system: HSV-1 (herpes simplex virus, type 1); test: General anti-viral assay, HSV-1 in CV-1 cells (plaque reduction); type: cell-based; conditions: Human alphaherpesvirus 1; CV-1/ HSV-1; read-out: IC50 µg/ml approx
[8] = system: VSV (Vesicular Stomatitis Virus); test: microbe, parasite or virus in culture; type: cell-based; conditions: BHK, read-out: IC50 µg/ml approx

SMILES: CC(C)=CC1CC(C)C2CCC(C)c3c4c(c(C)c1c32)OCO4 (stereo not drawn) [AH-5, Helioporin E]
- IC50 ([1]; Mus musculus, P388, P-388, read-out: IC50 µg/ml approx): 5 to 10 µg/mL (≈ 16 to 32 µM)
- activity (cell inhibition) ([1]; P-388, TEST CONC (µg) 0.2): - ((-) no activity - the number of cells is equal to the control of growth, 0-40% cell inhibition)
- activity (cell inhibition) ([1]; P-388, TEST CONC (µg) 0.5): - ((-) no activity - the number of cells is equal to the control of growth, 0-40% cell inhibition)
- activity (cell inhibition) ([1]; P-388, TEST CONC (µg) 1): - ((-) no activity - the number of cells is equal to the control of growth, 0-40% cell inhibition)
- activity (cell inhibition) ([1]; P-388, TEST CONC (µg) 2): - ((-) no activity - the number of cells is equal to the control of growth, 0-40% cell inhibition)
- activity (cell inhibition) ([1]; P-388, TEST CONC (µg) 5): - ((-) no activity - the number of cells is equal to the control of growth, 0-40% cell inhibition)
- activity (cell inhibition) ([1]; P-388, TEST CONC (µg) 10): ++ ((++) good activity - numbers of cells are reduced by approx 70-90%)
- activity (cell inhibition) ([1]; P-388, TEST CONC (µg) 20): ++ ((++) good activity - numbers of cells are reduced by approx 70-90%)
- activity (cell inhibition) ([2]; A-549, TEST CONC (µg) 0.2): - ((-) no activity - the number of cells is equal to the control of growth, 0-40% cell inhibition)
- activity (cell inhibition) ([2]; A-549, TEST CONC (µg) 0.5): - ((-) no activity - the number of cells is equal to the control of growth, 0-40% cell inhibition)
- activity (cell inhibition) ([2]; A-549, TEST CONC (µg) 1): - ((-) no activity - the number of cells is equal to the control of growth, 0-40% cell inhibition)
- activity (cell inhibition) ([2]; A-549, TEST CONC (µg) 2): - ((-) no activity - the number of cells is equal to the control of growth, 0-40% cell inhibition)
- activity (cell inhibition) ([2]; A-549, TEST CONC (µg) 5): - ((-) no activity - the number of cells is equal to the control of growth, 0-40% cell inhibition)
- activity (cell inhibition) ([2]; A-549, TEST CONC (µg) 10): - ((-) no activity - the number of cells is equal to the control of growth, 0-40% cell inhibition)
- activity (cell inhibition) ([2]; A-549, TEST CONC (µg) 20): - ((-) no activity - the number of cells is equal to the control of growth, 0-40% cell inhibition)
- IC50 ([2]; Homo sapiens, A549, A-549, read-out: IC50 µg/ml approx): > 20 µg/mL
- activity (cell inhibition) ([3]; HT-29, TEST CONC (µg) 0.2): - ((-) no activity - the number of cells is equal to the control of growth, 0-40% cell inhibition)
- activity (cell inhibition) ([3]; HT-29, TEST CONC (µg) 0.5): - ((-) no activity - the number of cells is equal to the control of growth, 0-40% cell inhibition)
- activity (cell inhibition) ([3]; HT-29, TEST CONC (µg) 1): - ((-) no activity - the number of cells is equal to the control of growth, 0-40% cell inhibition)
- activity (cell inhibition) ([3]; HT-29, TEST CONC (µg) 2): - ((-) no activity - the number of cells is equal to the control of growth, 0-40% cell inhibition)
- activity (cell inhibition) ([3]; HT-29, TEST CONC (µg) 5): + ((+) low activity - numbers of cells are reduced by approx 50-60%)
- activity (cell inhibition) ([3]; HT-29, TEST CONC (µg) 10): ++ ((++) good activity - numbers of cells are reduced by approx 70-90%)
- activity (cell inhibition) ([3]; HT-29, TEST CONC (µg) 20): +++ ((+++) very good activity - there is 100% cell inhibition)
- IC50 ([3]; Homo sapiens, HT-29, read-out: IC50 µg/ml approx): ~5 µg/mL (≈ 16 µM)
- IC50 ([4]; Homo sapiens, MCF7, MCF-7, read-out: IC50 µg/ml approx): ~10 µg/mL (≈ 32 µM)
- activity (cell inhibition) ([4]; MCF-7, TEST CONC (µg) 0.2): - ((-) no activity - the number of cells is equal to the control of growth, 0-40% cell inhibition)
- activity (cell inhibition) ([4]; MCF-7, TEST CONC (µg) 0.5): - ((-) no activity - the number of cells is equal to the control of growth, 0-40% cell inhibition)
- activity (cell inhibition) ([4]; MCF-7, TEST CONC (µg) 1): - ((-) no activity - the number of cells is equal to the control of growth, 0-40% cell inhibition)
- activity (cell inhibition) ([4]; MCF-7, TEST CONC (µg) 2): - ((-) no activity - the number of cells is equal to the control of growth, 0-40% cell inhibition)
- activity (cell inhibition) ([4]; MCF-7, TEST CONC (µg) 5): - ((-) no activity - the number of cells is equal to the control of growth, 0-40% cell inhibition)
- activity (cell inhibition) ([4]; MCF-7, TEST CONC (µg) 10): + ((+) low activity - numbers of cells are reduced by approx 50-60%)
- activity (cell inhibition) ([4]; MCF-7, TEST CONC (µg) 20): +++ ((+++) very good activity - there is 100% cell inhibition)
- activity (cell inhibition) ([5]; CV-1, TEST CONC (µg) 0.2): - ((-) no activity - the number of cells is equal to the control of growth, 0-40% cell inhibition)
- activity (cell inhibition) ([5]; CV-1, TEST CONC (µg) 0.5): - ((-) no activity - the number of cells is equal to the control of growth, 0-40% cell inhibition)
- activity (cell inhibition) ([5]; CV-1, TEST CONC (µg) 1): - ((-) no activity - the number of cells is equal to the control of growth, 0-40% cell inhibition)
- activity (cell inhibition) ([5]; CV-1, TEST CONC (µg) 2): - ((-) no activity - the number of cells is equal to the control of growth, 0-40% cell inhibition)
- activity (cell inhibition) ([5]; CV-1, TEST CONC (µg) 5): - ((-) no activity - the number of cells is equal to the control of growth, 0-40% cell inhibition)
- activity (cell inhibition) ([5]; CV-1, TEST CONC (µg) 10): - ((-) no activity - the number of cells is equal to the control of growth, 0-40% cell inhibition)
- activity (cell inhibition) ([5]; CV-1, TEST CONC (µg) 20): ++ ((++) good activity - numbers of cells are reduced by approx 70-90%)
- IC50 ([5]; Primates, CV-1, read-out: IC50 µg/ml approx): 10 to 20 µg/mL (≈ 32 to 64 µM)
- IC50 ([6]; Mesocricetus auratus, read-out: IC50 µg/ml approx): ~5 µg/mL (≈ 16 µM)
- activity (cell inhibition) ([6]; TEST CONC (µg) 0.2): - ((-) no activity - the number of cells is equal to the control of growth, 0-40% cell inhibition)
- activity (cell inhibition) ([6]; TEST CONC (µg) 0.5): - ((-) no activity - the number of cells is equal to the control of growth, 0-40% cell inhibition)
- activity (cell inhibition) ([6]; TEST CONC (µg) 1): - ((-) no activity - the number of cells is equal to the control of growth, 0-40% cell inhibition)
- activity (cell inhibition) ([6]; TEST CONC (µg) 2): - ((-) no activity - the number of cells is equal to the control of growth, 0-40% cell inhibition)
- activity (cell inhibition) ([6]; TEST CONC (µg) 5): + ((+) low activity - numbers of cells are reduced by approx 50-60%)
- activity (cell inhibition) ([6]; TEST CONC (µg) 10): +++ ((+++) very good activity - there is 100% cell inhibition)
- activity (cell inhibition) ([6]; TEST CONC (µg) 20): +++ ((+++) very good activity - there is 100% cell inhibition)
- IC50 [7]: > 40 µg/mL
- IC50 [8]: > 40 µg/mL
- cytotoxicity (inhibition zone on the cell sheet) (BHK cells): 0-
